Data reported in publication PMC5789083, “Mechanisms driving the antibacterial and antibiofilm properties of Hp1404 and its analogue peptides against multidrug-resistant Pseudomonas aeruginosa” (Scientific Reports, 2018).
Where two headings read alike, the source gives them in different places. Where no end group is shown, it is not given here.

Tests used:
[1] = test system: Pseudomonas aeruginosa and MRPA strains; assay: microbe, parasite or virus in culture; format: cell-based; details: broth micro-dilution, 37 °C, 18–24 h
How it was run: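 Peptide dilutions prepared in 10 mM sodium phosphate buffer were combined in equal volume with overnight cultures diluted to 2 × 10^5 CFU/mL (reference strain ATCC 27853 and hospital MDR isolates). After 18–24 h at 37 °C, absorbance at 600 nm defined MIC; triplicate tests.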

HaCaT cells = assay: Cytotoxicity, MTT assay; format: cell-based, human; details: 50 µM, 24 h
Protocol: We used the MTT assay to evaluate the toxicity of the peptides toward human skin epithelial cells (HaCaT) as previously described. Briefly, HaCaT cells were seeded at a density of 2 × 10^4 cells per well in 96-well microtiter plates in Dulbecco’s modified Eagle’s medium (DMEM) containing 10% foetal bovine serum (FBS) at 37 °C under 5% CO2 atmosphere. The next day, peptides were added to each well at various final concentrations (higher concentration of 200 µM). After 24 h incubation, culture supernatants were removed. 0.5 mg/mL MTT was added to each well, and the plates were incubated for 4 h at 37 °C. The medium was replaced by dimethyl sulfoxide (DMSO) to dissolve the formazan crystals formed in the wells. The absorbance at 570 nm was measured using a Versa-Max microplate ELISA reader (Molecular Devices). The viability rate was calculated using the following formula: Cell viability (%) = (absorbance of treated sample)/(absorbance of control) × 100.

P. aeruginosa 27853 = format: cell-based, Pseudomonas aeruginosa
Protocol: We examined the activity of each peptide against both pseudomonas aeruginosa and multidrug-resistant strains. The minimal inhibitory concentrations (MICs) of peptides were determined using the broth micro-dilution assay as described previously. Briefly, bacterial strains were cultivated with shaking overnight at 37 °C. The next day, they were diluted to a density of 2 × 10^5 CFU/mL with growth medium. Peptides were serially diluted with 10 mM sodium phosphate buffer. 50 µL bacterial aliquots were mixed with an equal volume of peptide solution, and incubated at 37 °C for 18–24 h. Inhibition of bacterial growth was determined by measuring the absorbance at 600 nm using a Versa Max microplate reader (Molecular Devices, Sunnyvale, CA, USA). The test was performed in triplicate.
The effects of various cations on the antibacterial activities of the parental and analogue peptides against P. aeruginosa 27853 were evaluated as previously described. Bacteria was treated with peptides at a final concentration 25 µM in the presence of physiological salts such as NaCl (50 mM, 100 mM, and 150 mM), CaCl2 (1.25 mM, 2.5 mM, and 5 mM), or MgCl2 (0.5 mM, 1 mM, and 2 mM). The MIC values were determined as described above.

[2] = test system: P. aeruginosa strains (biofilm formation); format: cell-based, Pseudomonas aeruginosa; details: 24 h, 37 °C, crystal violet OD595
How it was run: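 Antibiotic-susceptible (ATCC 27853) and MDR P. aeruginosa grown in nutrient broth ± peptides; biofilms methanol-fixed, stained with 0.1% crystal violet, dissolved in 95% ethanol and read at OD 595 nm. Expressed as percent of control biofilm, at least triplicate.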

[3] = P. aeruginosa 138 (multidrug-resistant), triplicate
[4] = P. aeruginosa 431 (multidrug-resistant), triplicate
[5] = P. aeruginosa 434 (multidrug-resistant), triplicate
[6] = P. aeruginosa 557 (multidrug-resistant), triplicate
[7] = P. aeruginosa 559 (multidrug-resistant), triplicate
[8] = P. aeruginosa 778 (multidrug-resistant), triplicate
[9] = P. aeruginosa 1034 (multidrug-resistant), triplicate
[10] = P. aeruginosa 1162 (multidrug-resistant), triplicate
[11] = P. aeruginosa 3290 (multidrug-resistant), triplicate
[12] = P. aeruginosa 3399 (multidrug-resistant), triplicate
[13] = P. aeruginosa 3543 (multidrug-resistant), triplicate
[14] = P. aeruginosa 3592 (multidrug-resistant), triplicate
[15] = P. aeruginosa 3904 (multidrug-resistant), triplicate
[16] = P. aeruginosa 4007 (multidrug-resistant), triplicate
[17] = P. aeruginosa 4319 (multidrug-resistant), triplicate
[18] = P. aeruginosa 4891 (multidrug-resistant), triplicate
[19] = P. aeruginosa 5018 (multidrug-resistant), triplicate
[20] = P. aeruginosa 671973 (multidrug-resistant), triplicate
[21] = P. aeruginosa ATCC 27853, 2 × 10^5 CFU/mL, A600, triplicate
[22] = P. aeruginosa 27853, 5 × 10^5 CFU/mL, 0.2% glucose

Substance | MIC [1, 3] | MIC [1, 4] | MIC [1, 5] | MIC [1, 6] | MIC [1, 7] | MIC [1, 8] | MIC [1, 9] | MIC [1, 10] | MIC [1, 11] | MIC [1, 12] | MIC [1, 13] | MIC [1, 14] | MIC [1, 15] | MIC [1, 16] | MIC [1, 17] | MIC [1, 18] | MIC [1, 19] | MIC [1, 20] | MIC [1, 21] | survival rate of HaCaT cells (HaCaT cells) | further results
ILKKLLKKVKKI-NH2 [Hp1404-T1e] | 6.25 µM | 3.13 µM | 3.13 µM | 3.13 µM | 6.25 µM | 1.56 µM | 1.56 µM | 1.56 µM | 6.25 µM | 0.78 µM | 12.5 µM | 1.56 µM | 3.13 µM | 3.13 µM | 3.13 µM | 1.56 µM | 1.56 µM | 1.56 µM | 1.56 µM | 100% | MIC (P. aeruginosa 27853; CaCl2 1.25 mM): 6.25 µM; MIC (P. aeruginosa 27853; CaCl2 2.5 mM): 12.5 µM; MIC (P. aeruginosa 27853; CaCl2 5 mM): >25 µM; MIC (P. aeruginosa 27853; MgCl2 0.5 mM): 3.13 µM; MIC (P. aeruginosa 27853; MgCl2 1 mM): 3.13 µM; MIC (P. aeruginosa 27853; MgCl2 2 mM): 12.5 µM; MIC (P. aeruginosa 27853; NaCl 50 mM): 6.25 µM; MIC (P. aeruginosa 27853; NaCl 100 mM): 6.25 µM; MIC (P. aeruginosa 27853; NaCl 150 mM): 12.5 µM; MBIC ([2]; P. aeruginosa 434): 12.5 µM; MBIC ([2]; P. aeruginosa 559): 12.5 µM; MBIC ([2]; P. aeruginosa 778): 6.25 µM; MBIC ([2]; P. aeruginosa 1034): 6.25 µM; MBIC ([2]; P. aeruginosa 1162): 6.25 µM; MBIC ([2]; P. aeruginosa 3399): 12.5 µM; MBIC ([2]; P. aeruginosa 3543): 50 µM; MBIC ([2]; P. aeruginosa 4007): 12.5 µM; MBIC [2, 22]: 12.5 µM
GILGKLWEGVKSIF-NH2 [Hp1404] | 12.5 µM | 12.5 µM | 12.5 µM | 6.25 µM | 25 µM | 12.5 µM | 6.25 µM | 12.5 µM | 12.5 µM | 6.25 µM | 6.25 µM | 6.25 µM | 6.25 µM | 25 µM | 12.5 µM | 6.25 µM | 12.5 µM | 3.13 µM | 12.5 µM | 30% | MIC (P. aeruginosa 27853; CaCl2 1.25 mM): >25 µM; MIC (P. aeruginosa 27853; CaCl2 2.5 mM): >25 µM; MIC (P. aeruginosa 27853; CaCl2 5 mM): >25 µM; MIC (P. aeruginosa 27853; MgCl2 0.5 mM): 25 µM; MIC (P. aeruginosa 27853; MgCl2 1 mM): 25 µM; MIC (P. aeruginosa 27853; MgCl2 2 mM): >25 µM; MIC (P. aeruginosa 27853; NaCl 50 mM): 25 µM; MIC (P. aeruginosa 27853; NaCl 100 mM): >25 µM; MIC (P. aeruginosa 27853; NaCl 150 mM): >25 µM; MBIC ([2]; P. aeruginosa 434): 25 µM; MBIC ([2]; P. aeruginosa 559): 50 µM; MBIC ([2]; P. aeruginosa 778): 25 µM; MBIC ([2]; P. aeruginosa 1034): 25 µM; MBIC ([2]; P. aeruginosa 1162): 25 µM; MBIC ([2]; P. aeruginosa 3399): 12.5 µM; MBIC ([2]; P. aeruginosa 3543): 6.25 µM; MBIC ([2]; P. aeruginosa 4007): 25 µM; MBIC [2, 22]: 25 µM
